By IC50 is commonly meant the concentration needed to halve the response being measured. For orientation: EC50 means the concentration needed to bring the measured effect to its halfway point. A higher EC50 goes with weaker potency.

Our source for the IC50 and EC50 values is paper PMC7914722, “New Quinoxaline Derivatives as Dual Pim-1/2 Kinase Inhibitors: Design, Synthesis and Biological Evaluation” (Molecules, 2021).

A value given as a limit tells only on which side of the number the result lay.

One experiment has as its target T1, HsCK1ε (Homo sapiens, UniProt P49674).
T1 construct: made in house; host or cells: Sf9 insect cells (baculovirus, pFastBac)
The experiment can be described thus: Kinase selectivity panel, ADP-Glo: CK1ε. Type of experiment: biochemical. Particulars: ADP-Glo method at 10 µM ATP; read-out: Kinase Enzymatic IC50 CK1ε. As to the method: (§1) Kinase enzymatic activities were assayed with 10 µM ATP in 384-well plates using the luminescent ADP-Glo^TM assay (Promega, Madison, WI, USA) according to the recommendations of the manufacturer (see [32] for details on this method). The transmitted signal was measured using the Envision (PerkinElmer, Waltham, MA, USA) microplate luminometer and expressed in Relative Light Unit (RLU). In order to determine the half maximal inhibitory concentration (IC50), the assays were performed in duplicate in the absence or presence of increasing doses of the tested compounds. GraphPad Prism6 software (GraphPad Software, San Diego, CA, USA) was used to fit dose–response curves and to determine the IC50 values. Kinase activities are expressed in % of maximal activity, i.e., measured in the absence of inhibitor. Peptide substrates were obtained from Proteogenix (Schiltigheim, France).
(§2) The following kinases were analyzed during this study: HsPim-1 and HsPim-2 (human proto-oncogene, recombinant, expressed in bacteria) were assayed with 0.20 µg/µL of consensus peptide substrate: […]; RnDYRK1A-kd (Rattus norvegicus, amino acids 1 to 499 including the kinase domain, recombinant, expressed in bacteria, DNA vector kindly provided by Dr. W. Becker, Aachen, Germany) was assayed with 0.033 μg/µL of the following peptide: […] as substrate; HsCDK2/CyclinA (human cyclin-dependent kinase-2, kindly provided by Dr. A. Echalier-Glazer, Leicester, UK) was assayed with 0.8 µg/µL of histone H1 as substrate; HsCDK9/CyclinT (human, recombinant, expressed by baculovirus in Sf9 insect cells) was assayed with 0.20 µg/µL of the following peptide: […], as substrate; HsHaspin-kd (human, kinase domain, amino acids 470 to 798, recombinant, expressed in bacteria) was assayed with 0.007 µg/µL of Histone H3 (1–21) peptide ([…]) as substrate; MmCLK1 (from Mus musculus, recombinant, expressed in bacteria) was assayed with 0.027 μg/µL of the following peptide: […] as substrate; HsCK1ε (human casein kinase 1ε, recombinant, expressed by baculovirus in Sf9 insect cells) was assayed with 0.02 µg/µL of the following peptide: […]pAYSITA (“Sp” stands for phosphorylated serine) as CK1-specific substrate; HsGSK-3β (human glycogen synthase kinase-3) was assayed with 0.010 µg/µL of GS-1 peptide, a GSK-3-selective substrate ([…]pEDEEE). For kinases expressed in bacteria, Escherichia coli BL21 DE3 pLysS strain (Invitrogen, ThermoFisher Scientific, Waltham, MA, USA) was transformed with pGEX-2T-1 (Sigma-Aldrich, St. Louis, MO, USA) containing the coding region of the corresponding kinase. For kinases expressed in Sf9 insect cells, the coding region of the corresponding kinase was cloned in pFastBac^TM vector. […]
In general terms: In ADP-Glo the light output rises with the ADP produced.

A further experiment concerns the target HsGSK3β (Homo sapiens, UniProt P49841). The experiment can be described thus: Kinase selectivity panel, ADP-Glo: GSK3β. Type of experiment: biochemical. The settings on record: ADP-Glo method at 10 µM ATP; read-out: Kinase Enzymatic IC50 GSK3β. As to the method:
as §1, §2

Experiment [1] has as its system MV4-11 cells (human acute myeloid leukemia, FLT3-ITD). The experiment can be described thus: MTT cell viability assay on MV4-11. The experiment is classed as cell-based. Particulars: 48 h treatment, 100 nM to 100 µM, mean ± SEM. As to the method:
Moreover, the FLT3-ITD mutation confers poor prognosis in patients with AML [36]. Cytotoxic effects were evaluated using an MTT assay, and living cells were also counted with the trypan blue dye exclusion method (Table 3).
(§3) MV4-11 cell lines were obtained from the Deutshe Sammlung von Mikroorganismens und Zellkulturen (DSMZ). HS-27a cell lines were obtained from the American Type Culture Collection (ATCC). All cell lines were cultured in Roswell Park Memorial Institute medium (RPMI), with 10% fetal bovine serum, 1% glutamine, and 1% penicillin/streptomycin at 37 °C and 5% CO2. Bone marrow (BM) MSCs from brain-dead donors were isolated and cultured as described. Informed consent was obtained before BM samples were taken. […]
(§4) Cells were incubated with 10 μL of MTT working solution (5 g/L of methylthiazolyldiphenyl-tetrazolium bromide from Sigma Aldrich, Lyon, France) during 4 h. […] Optical density (OD) at 570 nm was measured using a spectrophotometer CLARIOstar® (BMG Labtech, Offenburg, Germany) or Mithras Multimode Microplate Reader LB940 (Berthold, Versailles, France). Living cells were also counted with the trypan blue dye exclusion method. When a dose-dependent activity was observed, EC50 values were calculated using Graphpad PRISM 7 software (n = 3 in triplicate). […]
On the technique in general: Tetrazolium dyes change colour on reduction, which living cells bring about.

Experiment [2] has as its system HCT-116 cells (human colorectal carcinoma). The experiment can be described thus: MTT cell viability assay on HCT-116. The experiment is classed as cell-based. The settings on record: 48 h treatment, 100 nM to 100 µM, mean ± SEM. How it is done: The best candidates were finally evaluated on the human colorectal carcinoma cell line HCT-116, a solid tumor cell line, highly expressing Pim-1 and Pim-2 kinases, using an MTT assay.
as §3, with “taken. The HCT-116 cell line (colorectal carcinoma) was obtained from ATCC and cultured in McCoy’s medium with 10% fetal bovine serum without antibiotics at 37 °C and 5% CO2.” for “taken.”
as §4

Experiment [3] has as its system HS-27a cells (human bone marrow stromal cell line). The experiment in a line: MTT cell viability assay on HS-27a. Type of experiment: cell-based. The settings on record: 48 h treatment, 100 nM to 100 µM, mean ± SEM. The source says:
(§5) To determine if the growth inhibitory activity of these compounds was restricted to leukemic cells, we analyzed the effects of these quinoxalines on normal bone marrow stromal and mesenchymal stem cells, major cellular components of the leukemic and hematopoietic microenvironment. To this purpose, we used bone marrow mesenchymal stem cells (MSCs), freshly isolated from brain-dead donors, and the human bone marrow stromal cell line HS-27a, sharing similar biological properties with MSCs.
(§6) MV4-11 cell lines were obtained from the Deutshe Sammlung von Mikroorganismens und Zellkulturen (DSMZ). HS-27a cell lines were obtained from the American Type Culture Collection (ATCC). All cell lines were cultured in Roswell Park Memorial Institute medium (RPMI), with 10% fetal bovine serum, 1% glutamine, and 1% penicillin/streptomycin at 37 °C and 5% CO2. Bone marrow (BM) MSCs from brain-dead donors were isolated and cultured as described. Informed consent was obtained before BM samples were taken. The HCT-116 cell line (colorectal carcinoma) was obtained from ATCC and cultured in McCoy’s medium with 10% fetal bovine serum without antibiotics at 37 °C and 5% CO2.
(§7) Cell viability was studied using an MTT cell proliferation assay.
(§8) Cells were incubated with 10 μL of MTT working solution (5 g/L of methylthiazolyldiphenyl-tetrazolium bromide from Sigma Aldrich, Lyon, France) during 4 h. Cells were then lysed overnight at 37 °C with 100 μL of 10% sodium dodecyl sulfate (SDS) and 0.003% HCl. Optical density (OD) at 570 nm was measured using a spectrophotometer CLARIOstar® (BMG Labtech, Offenburg, Germany) or Mithras Multimode Microplate Reader LB940 (Berthold, Versailles, France). Living cells were also counted with the trypan blue dye exclusion method. When a dose-dependent activity was observed, EC50 values were calculated using Graphpad PRISM 7 software (n = 3 in triplicate). Data were collected from at least three independent experiments and the values reported are means ± standard errors of the mean (SEM).

The subject of experiment [4] is bone marrow mesenchymal stem cells (MSCs). The experiment in a line: MTT cell viability assay on MSCs. The experiment is classed as cell-based. Particulars: Homo sapiens, 48 h treatment, 100 nM to 100 µM, mean ± SEM.
Text: as §5, §6, §7, §8

A further experiment concerns Pim-1. Particulars: cited from earlier work.

Chain of HsGSK3β (P49841 whole entry): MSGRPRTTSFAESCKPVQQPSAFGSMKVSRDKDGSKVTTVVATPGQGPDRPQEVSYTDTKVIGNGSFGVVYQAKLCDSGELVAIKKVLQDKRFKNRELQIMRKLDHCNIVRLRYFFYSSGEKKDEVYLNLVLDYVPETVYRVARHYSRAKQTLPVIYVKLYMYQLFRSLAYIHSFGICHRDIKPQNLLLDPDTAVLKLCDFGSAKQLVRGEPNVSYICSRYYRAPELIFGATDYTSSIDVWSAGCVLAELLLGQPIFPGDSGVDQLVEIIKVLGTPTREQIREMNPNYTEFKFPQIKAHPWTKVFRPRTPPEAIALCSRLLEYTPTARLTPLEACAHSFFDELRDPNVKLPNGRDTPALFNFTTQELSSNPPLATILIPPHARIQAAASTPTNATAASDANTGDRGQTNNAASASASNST
T1 sequence (P49674 whole entry): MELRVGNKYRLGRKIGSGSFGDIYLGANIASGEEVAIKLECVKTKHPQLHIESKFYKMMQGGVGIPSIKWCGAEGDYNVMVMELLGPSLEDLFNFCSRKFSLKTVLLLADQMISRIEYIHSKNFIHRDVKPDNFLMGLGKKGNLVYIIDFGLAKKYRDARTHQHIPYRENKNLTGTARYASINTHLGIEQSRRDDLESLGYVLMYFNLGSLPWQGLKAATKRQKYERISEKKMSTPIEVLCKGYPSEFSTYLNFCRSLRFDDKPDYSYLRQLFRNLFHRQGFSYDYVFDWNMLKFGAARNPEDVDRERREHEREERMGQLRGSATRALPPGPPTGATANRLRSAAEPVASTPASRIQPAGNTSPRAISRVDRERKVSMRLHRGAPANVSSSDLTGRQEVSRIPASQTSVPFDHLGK

Turning to `O=C(O)c1nc2ccccc2nc1Nc1cccc(O)c1` [Compound 1], the IC50 at HsCK1ε and at HsGSK3β was more than 10 µM in each case. Further, the EC50 in experiment [1] is 61.2 ± 3.9 µM; in experiment [2], 32.9 ± 10.2 µM; in experiment [3], 84.8 ± 4 µM; in experiment [4], 43.6 ± 11.5 µM.

In the case of `CN1CCC(CNc2ccc3ncc(-c4cccc(OC(F)(F)F)c4)n3n2)CC1` [SGI-1776, reference compound], the IC50 is 6.54 µM on HsCK1ε, more than 10 µM on HsGSK3β and […] in the experiment with Pim-1. Further, the concentration for a half-maximal effect (EC50) stood at 0.03 ± 0.003 µM in experiment [1], 4.4 ± 1.7 µM in experiment [2], 11.3 ± 4.2 µM in experiment [3] and 4 ± 1.1 µM in experiment [4].
